Counter-ions that a name gives are not always drawn.
Key:
L6-myotubes [1] = assay: Glucose uptake in differentiated L6-myotubes (3H-2-deoxyglucose), compared to isoproterenol; format: cell-based; conditions: agonist 1×10^−5 M, 50 nM 3H-2-deoxyglucose
Method in brief: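 Serum-starved differentiated L6 myotubes stimulated with agonist at 1×10^−5 M for 1 h 40 min, re-dosed in glucose-free medium for 20 min, then given 50 nM ^3H-2-deoxyglucose for 10 min. Uptake read by β-counting of NaOH lysates; activity expressed relative to isoproterenol.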

L6-myotubes [2] = assay: Measurement of intracellular cAMP levels in differentiated L6 cells (alpha screen cAMP kit), compared to isoproterenol; format: cell-based; conditions: agonist 1×10^−5 M, 15 min; for Emax at 10 µM: Rattus norvegicus, L6, 0.25 h, read-out: Biological example 2: intracellular cAMP levels, activity compared to that of isoproterenol
Method in brief: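 L6 myoblasts were differentiated into myotubes over 7 days in 2% FBS, then serum-starved overnight. Agonist at 1×10^−5 M final was applied for 15 min in HBSS with 1% BSA, 5 mM HEPES and 1 mM IBMX, pH 7.4. After ethanol extraction and lysis, cAMP was quantified by AlphaScreen, with activity expressed relative to isoproterenol.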

SMILES	Biological example 1: glucose uptake, activity compared to that of isoproterenol (L6-myotubes [1])	Emax at 10 µM (L6-myotubes [2])	Biological example 2: intracellular cAMP levels, activity compared to that of isoproterenol (L6-myotubes [2])
CN([C@H]1CC[C@H](CC(C)(C)NC[C@H](O)c2cccc(F)c2)CC1)S(C)(=O)=O.Cl [Example 179, N-((1R,4r)-4-(2-(((R)-2-(3-Fluorophenyl)-2-hydroxyethyl)amino)-2-methylpropyl)cyclohexyl)-N-methylmethanesulfonamide hydrochloride]	+ +	< 25%	–
CC(=O)N(C)[C@H]1CC[C@@H](CC(C)(C)NC[C@H](O)c2cccc(F)c2)CC1.Cl [Example 180, N-((1S,4s)-4-(2-(((R)-2-(3-Fluorophenyl)-2-hydroxyethyl)amino)-2-methylpropyl)cyclohexyl)-N-methylacetamide hydrochloride]	+ +	< 25%	–
CN([C@H]1CC[C@@H](CC(C)(C)NC[C@H](O)c2cccc(F)c2)CC1)S(C)(=O)=O.Cl [Example 181, N-((1S,4s)-4-(2-((®-2-(3-Fluorophenyl)-2-hydroxyethyl)amino)-2-methyl-propyl)cyclohexyl)-N-methylmethanesulfonamide hydrochloride]	+ +	< 25%	–
CC(=O)N(C)[C@H]1CC[C@H](CC(C)(C)NC[C@H](O)c2cncc(F)c2)CC1.Cl [Example 182, N-((1R,4r)-4-(2-(((R)-2-(5-Fluoropyridin-3-yl)-2-hydroxyethyl)amino)-2-methylpropyl)cyclohexyl)-N-methylacetamide]	+ + +	25 to 50%	–
CN([C@H]1CC[C@H](CC(C)(C)NC[C@H](O)c2cncc(F)c2)CC1)S(C)(=O)=O.Cl [Example 183, N-((1R,4r)-4-(2-(((R)-2-(5-Fluoropyridin-3-yl)-2-hydroxyethyl)amino)-2-methylpropyl)cyclohexyl)-N-methylmethanesulfonamide]	+ + +	< 25%	–
CC(=O)N(C)[C@H]1CC[C@@H](CC(C)(C)NC[C@H](O)c2cncc(F)c2)CC1.Cl [Example 184, N-((1S,4s)-4-(2-(((R)-2-(5-Fluoropyridin-3-yl)-2-hydroxyethyl)amino)-2-methylpropyl)cyclohexyl)-N-methylacetamide]	+ + +	< 25%	–
CN([C@H]1CC[C@@H](CC(C)(C)NC[C@H](O)c2cncc(F)c2)CC1)S(C)(=O)=O.Cl [Example 185, N-((1S,4s)-4-(2-(((R)-2-(5-Fluoropyridin-3-yl)-2-hydroxyethyl)amino)-2-methylpropyl)cyclohexyl)-N-methylmethanesulfonamide]	+ + +	< 25%	–
CN(C)S(=O)(=O)[C@H]1CC[C@H](CC(C)(C)NC[C@H](O)c2cccc(F)c2)CC1.Cl [Example 186, (1R,4r)-4-(2-(((R)-2-(3-Fluorophenyl)-2-hydroxyethyl)amino)-2-methyl-propyl)-N,N-dimethylcyclohexane-1-sulfonamide hydrochloride]	+ + +	–	+ +
CN(C)S(=O)(=O)[C@H]1CC[C@H](CC(C)(C)NC[C@H](O)c2cncc(F)c2)CC1 [Example 187, (1R,4r)-4-(2-(((R)-2-(5-Fluoropyridin-3-yl)-2-hydroxyethyl)amino)-2-methylpropyl)-N,N-dimethylcyclohexane-1-sulfonamide dihydrochloride]	+ + +	25 to 50%	–
CN(C)S(=O)(=O)[C@H]1CC[C@@H](CC(C)(C)NC[C@H](O)c2cccc(F)c2)CC1.Cl [Example 188, (1S,4s)-4-(2-(((R)-2-(3-fluorophenyl)-2-hydroxyethyl)amino)-2-methyl-propyl)-N,N-dimethylcyclohexane-1-sulfonamide hydrochloride]	+ + +	25 to 50%	–
CN(C)S(=O)(=O)[C@H]1CC[C@@H](CC(C)(C)NC[C@H](O)c2cncc(F)c2)CC1 [Example 189, (1S,4s)-4-(2-(((R)-2-(5-Fluoropyridin-3-yl)-2-hydroxyethyl)amino)-2-methylpropyl)-N,N-dimethylcyclohexane-1-sulfonamide dihydrochloride]	+ + +	–	+ +
CNS(=O)(=O)[C@H]1CC[C@H](CC(C)(C)NC[C@H](O)c2cccc(F)c2)CC1 [Example 190, (1R,4r)-4-(2-(((R)-2-(3-Fluorophenyl)-2-hydroxyethyl)amino)-2-methyl-propyl)-N-methylcyclohexane-1-sulfonamide hydrochloride]	+ + +	25 to 50%	–
CNS(=O)(=O)[C@H]1CC[C@H](CC(C)(C)NC[C@H](O)c2cncc(F)c2)CC1 [Example 191, (1R,4r)-4-(2-(((R)-2-(5-Fluoropyridin-3-yl)-2-hydroxyethyl)amino)-2-methylpropyl)-N-methylcyclohexane-1-sulfonamide dihydrochloride]	+ +	< 25%	–
CNS(=O)(=O)[C@H]1CC[C@@H](CC(C)(C)NC[C@H](O)c2cccc(F)c2)CC1.Cl [Example 192, (1S,4s)-4-(2-(((R)-2-(3-Fluorophenyl)-2-hydroxyethyl)amino)-2-methyl-propyl)-N-methylcyclohexane-1-sulfonamide hydrochloride]	+ + +	< 25%	–
CNS(=O)(=O)[C@H]1CC[C@@H](CC(C)(C)NC[C@H](O)c2cncc(F)c2)CC1 [Example 193, (1S,4s)-4-(2-(((R)-2-(5-Fluoropyridin-3-yl)-2-hydroxyethyl)amino)-2-methylpropyl)-N-methylcyclohexane-1-sulfonamide dihydrochloride]	+ + +	< 25%	–
CC(C)(C[C@H]1CC[C@H](S(N)(=O)=O)CC1)NC[C@H](O)c1cccc(F)c1.Cl [Example 194, (1R,4r)-4-(2-(((R)-2-(3-Fluorophenyl)-2-hydroxyethyl)amino)-2-methylpropyl)cyclohexane-1-sulfonamide hydrochloride]	+ + +	< 25%	–
CC(C)(C[C@H]1CC[C@H](S(N)(=O)=O)CC1)NC[C@H](O)c1cncc(F)c1 [Example 195, (1R,4r)-4-(2-(((R)-2-(5-Fluoropyridin-3-yl)-2-hydroxyethyl)amino)-2-methylpropyl)cyclohexane-1-sulfonamide dihydrochloride]	+ + +	< 25%	–
CC(C)(C[C@H]1CC[C@@H](S(N)(=O)=O)CC1)NC[C@H](O)c1cccc(F)c1.Cl [Example 196, (1S,4s)-4-(2-(((R)-2-(3-Fluorophenyl)-2-hydroxyethyl)amino)-2-methylpropyl)cyclohexane-1-sulfonamide hydrochloride]	+ + +	< 25%	–
CC(C)(C[C@H]1CC[C@@H](S(N)(=O)=O)CC1)NC[C@H](O)c1cncc(F)c1 [Example 197, (1S,4s)-4-(2-(((R)-2-(5-Fluoropyridin-3-yl)-2-hydroxyethyl)amino)-2-methylpropyl)cyclohexane-1-sulfonamide dihydrochloride]	+ + +	< 25%	–
CCCS(=O)(=O)N[C@H]1CC[C@@H](CC(C)(C)NC[C@H](O)c2cncc(F)c2)CC1 [Example 198, N-((1S,4s)-4-(2-(((R)-2-(5-Fluoropyridin-3-yl)-2-hydroxyethyl)amino)-2-methylpropyl)cyclohexyl)propane-1-sulfonamide]	+ + +	< 25%	–
CC(C)(C[C@H]1CC[C@@H](NS(=O)(=O)C(F)(F)F)CC1)NC[C@H](O)c1cncc(F)c1 [Example 199, 1,1,1-Trifluoro-N-((1S,4s)-4-(2-(((R)-2-(5-fluoropyridin-3-yl)-2-hydroxy-ethyl)amino)-2-methylpropyl)cyclohexyl)methanesulfonamide dihydrochloride]	+ + +	< 25%	–
